Test results as given in PMC10663510 (Scientific Reports, 2023).

How the values were obtained:
[1] = biological target: T1, MSMEG-3765 (TetR-like repressor) (Mycolicibacterium smegmatis, UniProt A0QYS0); assay: EMSA, release of […] bp operator DNA; format: binding; details: 0.2 pmol DNA, 4 pmol protein, 400 or 4000 pmol drug in 20 ul; 20 mM HEPES pH 8.0, 75 mM NaCl, 10 mM MgCl2, 30 °C
T1 construct: gene MSMEG_3765; homodimer; 211 residues per chain in model

[2] = test system: T2, MSMEG-3765 (TetR-like repressor) (Mycolicibacterium (Mycobacterium) smegmatis mc2 155?), ORF:4079dac7; assay: EMSA; details: 20 mM HEPES pH 8.0, 75 mM NaCl, 10 mM MgCl2, 5% glycerol; 20 ul, 30 C 10 min; native 8% PAGE at 4 C
T2 sequence: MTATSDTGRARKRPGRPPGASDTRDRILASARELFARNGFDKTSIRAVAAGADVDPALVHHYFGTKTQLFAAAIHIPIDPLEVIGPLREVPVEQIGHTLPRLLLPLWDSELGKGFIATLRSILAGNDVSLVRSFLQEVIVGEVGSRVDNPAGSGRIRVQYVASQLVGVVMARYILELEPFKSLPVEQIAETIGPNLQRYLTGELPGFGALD

[3] = biological target: the molecule itself; assay: circular dichroism (spectrum and thermal unfolding) compared with data back-calculated from monomer and dimer models; MSMEG-3765 in 20 mM Tris HCl, 500 mM NaCl, pH 8; CD spectra 200-260 nm at 5-85 °C; melting temperature and spectrum compared with predictions (SCooP, PDBMD2CD) from predicted monomeric and dimeric structures

In the case of `O=C(O)c1cn(C2CC2)c2cc(N3CCNCC3)c(F)cc2c1=O` [ciprofloxacin], the “EMSA, release of 133 bp operator DNA” value [1] is reported as “rifampicin or ciprofloxacin are able to directly interfear with the binding of the MSMEG-3765 TetR”.

`CO[C@H]1/C=C/O[C@@]2(C)Oc3c(C)c(O)c4c(O)c(c(/C=N/N5CCN(C)CC5)c(O)c4c3C2=O)NC(=O)/C(C)=C\C=C\[C@H](C)[C@H](O)[C@@H](C)[C@@H](O)[C@@H](C)[C@H](OC(C)=O)[C@@H]1C` [rifampicin] was tested, and the “EMSA, release of 133 bp operator DNA” value [1] was “rifampicin or ciprofloxacin are able to directly interfear with the binding of the MSMEG-3765 TetR”.

“CTGCTGGAGTCCGCCGCCTGAGCCAGGCGTCGCCGACGCCGAAATGTGTCGACGCATCGTCTTCCCACCGGACGACGGCAGGCCTAGAATTCATTGCATGATGACTTCATCGCGCGATGAATTGTCAGCGACGGGGCCCG (double strand) [133 bp MSMEG_3762 upstream operator fragment]” was tested, and the binding [2] was “binds”.

B1: TetR-like MSMEG-3765 repressor (natural protein)
chain: T2 sequence
notes: also called MSMEG-3765 TetR recombinant protein; TetR-like MSMEG-3765 protein
B1: binds [3].
